Results: PubChem BioAssay AID1963863 (Molecular Pharmacology Branch, DTP, NCI, 2024)

Tested on: 931267-113-T-J1-PDC KRAS spheroid with HUVEC/MSC, viability
Test: Anticancer human tumor 931267-113-T-J1-PDC patient-derived colon adenocarcinoma cell line growth inhibition [KRAS2]
Details: for IC50: curve of first compound; for viability, T/C: stronger effect = lower value; active = viability on the fitted dose curve at most 10% of control; inactive = the rest
In short: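 KRAS-mutant tumor cells were grown as spheroids with HUVEC endothelial cells and human MSCs as stroma. Targeted agents were tested alone and with KRAS pathway inhibitors. Doses started at or near clinical Cmax, or 10 microM, descending half-log.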

[1] = second compound 0.1 µM, first compound 0.000316 µM
[2] = second compound 0.1 µM, first compound 0.001 µM
[3] = second compound 0.1 µM, first compound 0.00316 µM
[4] = second compound 0.1 µM, first compound 0.01 µM
[5] = second compound 0.1 µM, first compound 0.0316 µM
[6] = second compound 0.1 µM, first compound 0.1 µM
[7] = second compound 0.316 µM, first compound 0.000316 µM
[8] = second compound 0.316 µM, first compound 0.001 µM
[9] = second compound 0.316 µM, first compound 0.00316 µM
[10] = second compound 0.316 µM, first compound 0.01 µM
[11] = second compound 0.316 µM, first compound 0.0316 µM
[12] = second compound 0.316 µM, first compound 0.1 µM
[13] = second compound 1 µM, first compound 0.000316 µM
[14] = second compound 1 µM, first compound 0.001 µM
[15] = second compound 1 µM, first compound 0.00316 µM
[16] = second compound 1 µM, first compound 0.01 µM
[17] = second compound 1 µM, first compound 0.0316 µM
[18] = second compound 1 µM, first compound 0.1 µM
[19] = second compound 3.16 µM, first compound 0.000316 µM
[20] = second compound 3.16 µM, first compound 0.001 µM
[21] = second compound 3.16 µM, first compound 0.00316 µM
[22] = second compound 3.16 µM, first compound 0.01 µM
[23] = second compound 3.16 µM, first compound 0.0316 µM
[24] = second compound 3.16 µM, first compound 0.1 µM
[25] = second compound 10 µM, first compound 0.000316 µM
[26] = second compound 10 µM, first compound 0.001 µM
[27] = second compound 10 µM, first compound 0.00316 µM
[28] = second compound 10 µM, first compound 0.01 µM
[29] = second compound 10 µM, first compound 0.0316 µM
[30] = second compound 10 µM, first compound 0.1 µM
[31] = second compound 0.1 µM, first compound 0.316 µM
[32] = second compound 0.1 µM, first compound 1 µM
[33] = second compound 0.1 µM, first compound 3.16 µM
[34] = second compound 0.1 µM, first compound 10 µM
[35] = second compound 0.316 µM, first compound 0.316 µM
[36] = second compound 0.316 µM, first compound 1 µM
[37] = second compound 0.316 µM, first compound 3.16 µM
[38] = second compound 0.316 µM, first compound 10 µM
[39] = second compound 1 µM, first compound 0.316 µM
[40] = second compound 1 µM, first compound 1 µM
[41] = second compound 1 µM, first compound 3.16 µM
[42] = second compound 1 µM, first compound 10 µM
[43] = second compound 3.16 µM, first compound 0.316 µM
[44] = second compound 3.16 µM, first compound 1 µM
[45] = second compound 3.16 µM, first compound 3.16 µM
[46] = second compound 3.16 µM, first compound 10 µM
[47] = second compound 10 µM, first compound 0.316 µM
[48] = second compound 10 µM, first compound 1 µM
[49] = second compound 10 µM, first compound 3.16 µM
[50] = second compound 10 µM, first compound 10 µM
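Also: compound exposure lasted 7 days before the readout.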
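For viability, T/C in this document: 100% = DMSO vehicle control viability.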

CC(C)n1nc(-c2ccc3oc(N)nc3c2)c2c(N)ncnc21 + CNCc1ccccc1-c1csc(C(C)Nc2nc(C)nc3cc(OC)c(OC)cc23)c1
4.24 nM: IC50 (second compound 0.316 µM)
active: viability, T/C [18] 5.59% | viability, T/C [19] 0.15% | viability, T/C [20] 0.12% | viability, T/C [21] 0.09% | viability, T/C [22] 0.08% | viability, T/C [23] 0.07% | viability, T/C [24] 0.21% | viability, T/C [25] 0.19% | viability, T/C [26] 0.81% | viability, T/C [27] 0.23% | viability, T/C [28] 0.29% | viability, T/C [29] 0.33% | viability, T/C [30] 0.4%
1.01 nM: IC50 (second compound 1 µM)
< 0.316 nM: IC50 (second compound 3.16 µM) | IC50 (second compound 10 µM)
6.18 nM: IC50 (second compound 0.1 µM)
inactive: viability, T/C [1] 87.3% | viability, T/C [2] 87.7% | viability, T/C [3] 68.4% | viability, T/C [4] 37.2% | viability, T/C [5] 24.2% | viability, T/C [6] 27.2% | viability, T/C [7] 85.6% | viability, T/C [8] 67.8% | viability, T/C [9] 55.5% | viability, T/C [10] 38.7% | viability, T/C [11] 27.7% | viability, T/C [12] 19.8% | viability, T/C [13] 51.3% | viability, T/C [14] 57.2% | viability, T/C [15] 33.2% | viability, T/C [16] 24.1% | viability, T/C [17] 12.7%

CC1(C)CCC(CN2CCN(c3ccc(C(=O)NS(=O)(=O)c4ccc(NCC5CCOCC5)c([N+](=O)[O-])c4)c(Oc4cnc5[nH]ccc5c4)c3)CC2)=C(c2ccc(Cl)cc2)C1 + CNCc1ccccc1-c1csc(C(C)Nc2nc(C)nc3cc(OC)c(OC)cc23)c1
active: viability, T/C [34] 4.79% | viability, T/C [38] 1.1% | viability, T/C [41] 4.62% | viability, T/C [42] 0.48% | viability, T/C [23] 0.12% | viability, T/C [24] 0.09% | viability, T/C [43] 0.2% | viability, T/C [44] 0.08% | viability, T/C [45] 0.05% | viability, T/C [46] 0.38% | viability, T/C [29] 0.18% | viability, T/C [30] 0.28% | viability, T/C [47] 0.14% | viability, T/C [48] 0.17% | viability, T/C [49] 0.44% | viability, T/C [50] 1.23%
1750 nM: IC50 (second compound 0.316 µM)
1920 nM: IC50 (second compound 0.1 µM)
< 31.6 nM: IC50 (second compound 1 µM) | IC50 (second compound 3.16 µM) | IC50 (second compound 10 µM)
inactive: viability, T/C [5] 107% | viability, T/C [6] 95.7% | viability, T/C [31] 106% | viability, T/C [32] 83.6% | viability, T/C [33] 24% | viability, T/C [11] 82.6% | viability, T/C [12] 69.5% | viability, T/C [35] 83.6% | viability, T/C [36] 81.1% | viability, T/C [37] 19.3% | viability, T/C [17] 41.8% | viability, T/C [18] 47.4% | viability, T/C [39] 54% | viability, T/C [40] 39.2%

COc1cc2nccc(Oc3ccc(NC(=O)C4(C(=O)Nc5ccc(F)cc5)CC4)cc3)c2cc1OC + CNCc1ccccc1-c1csc(C(C)Nc2nc(C)nc3cc(OC)c(OC)cc23)c1
inactive: viability, T/C [5] 86.3% | viability, T/C [6] 93.1% | viability, T/C [31] 107% | viability, T/C [32] 91% | viability, T/C [33] 50.1% | viability, T/C [34] 48.1% | viability, T/C [11] 85.5% | viability, T/C [12] 86.8% | viability, T/C [35] 81.9% | viability, T/C [36] 72.3% | viability, T/C [37] 27.2% | viability, T/C [38] 21.9% | viability, T/C [17] 45.3% | viability, T/C [18] 52.9% | viability, T/C [39] 39.5% | viability, T/C [40] 25.4%
1770 nM: IC50 (second compound 0.316 µM)
active: viability, T/C [41] 0.22% | viability, T/C [42] 1.76% | viability, T/C [23] 0.08% | viability, T/C [24] 0.19% | viability, T/C [43] 0.35% | viability, T/C [44] 0.07% | viability, T/C [45] 0.04% | viability, T/C [46] 0.2% | viability, T/C [29] 0.14% | viability, T/C [30] 0.17% | viability, T/C [47] 0.13% | viability, T/C [48] 0.12% | viability, T/C [49] 0.13% | viability, T/C [50] 0.21%
< 31.6 nM: IC50 (second compound 1 µM) | IC50 (second compound 3.16 µM) | IC50 (second compound 10 µM)
3210 nM: IC50 (second compound 0.1 µM)

Cn1ncnc1[C@H]1c2n[nH]c(=O)c3cc(F)cc(c23)N[C@@H]1c1ccc(F)cc1 + CNCc1ccccc1-c1csc(C(C)Nc2nc(C)nc3cc(OC)c(OC)cc23)c1
inactive: viability, T/C [1] 95.4% | viability, T/C [2] 85.4% | viability, T/C [3] 92.4% | viability, T/C [4] 84% | viability, T/C [5] 80.9% | viability, T/C [6] 72.6% | viability, T/C [7] 62.4% | viability, T/C [8] 66.7% | viability, T/C [9] 66.5% | viability, T/C [10] 59.9% | viability, T/C [11] 52.5% | viability, T/C [12] 56.6% | viability, T/C [13] 42.1% | viability, T/C [14] 61.8% | viability, T/C [15] 43.2% | viability, T/C [16] 32.8% | viability, T/C [17] 52.6% | viability, T/C [18] 32.3%
> 100 nM: IC50 (second compound 0.1 µM) | IC50 (second compound 0.316 µM)
< 0.316 nM: IC50 (second compound 1 µM) | IC50 (second compound 3.16 µM) | IC50 (second compound 10 µM)
active: viability, T/C [19] 0.09% | viability, T/C [20] 0.09% | viability, T/C [21] 0.09% | viability, T/C [22] 0.07% | viability, T/C [23] 0.1% | viability, T/C [24] 0.19% | viability, T/C [25] 0.14% | viability, T/C [26] 0.13% | viability, T/C [27] 0.13% | viability, T/C [28] 0.14% | viability, T/C [29] 0.16% | viability, T/C [30] 0.98%
